From the NIST ThermoML archive (doi:10.1016/j.jct.2006.03.016)

Assay: molar heat capacity at constant pressure
Settings: 101.33 kPa, Crystal, Small (less than 1 g) adiabatic calorimetry

[Al+3].[Al+3].[O-2].[O-2].[O-2] [aluminum oxide (Al2O3)]
Settings	molar heat capacity at constant pressure [J/K/mol]
67.51 K	4.23
72.34 K	5.283
77.04 K	6.242
81.8 K	7.403
86.61 K	8.725
91.44 K	10.14
96.31 K	11.67
101.2 K	13.33
106.12 K	15.05
111.05 K	16.78
116.01 K	18.55
120.97 K	20.4
125.95 K	22.45
126.3 K	22.61
130.94 K	24.45
131.11 K	24.51
136.11 K	26.55
141.13 K	28.63
146.18 K	30.36
151.22 K	32.53
156.26 K	34.6
161.32 K	36.54
166.38 K	38.67
171.45 K	40.51
176.54 K	42.37
181.62 K	44.42
186.71 K	46.27
191.8 K	48.19
192.43 K	48.27
197.63 K	50.37
202.75 K	52.12
207.86 K	53.85
212.97 K	55.55
218.09 K	57.33
223.2 K	59.08
228.33 K	60.72
233.45 K	62.37
238.56 K	63.95
243.82 K	65.47
248.97 K	66.83
253.98 K	68.28
259.13 K	69.78
264.27 K	71.19
269.43 K	72.53
274.59 K	73.76
279.73 K	74.97
284.88 K	76.16
290.03 K	77.34
295.19 K	78.6
300.35 K	79.79
305.76 K	80.81
311 K	82
316.16 K	83.02
321.33 K	83.65
326.51 K	84.83
331.66 K	86.08

O=C(O)c1ccccc1 [benzoic acid]
Settings	molar heat capacity at constant pressure [J/K/mol]
15.95 K	7.243
17.21 K	7.834
19 K	9.964
20.93 K	12.14
22.91 K	14.48
25.23 K	16.99
27.83 K	19.32
30.45 K	22.55
33.46 K	25.66
36.82 K	28.56
40.35 K	31.83
42.49 K	34.49
44.38 K	35.05
46.36 K	38.04
50.06 K	39.2
52.26 K	40.57
54.24 K	41.94
54.48 K	43.06
56.71 K	43.66
59.17 K	46.1
59.64 K	45.51
63.04 K	47.67
67.38 K	50.03
72.18 K	52.48
77.01 K	54.7
81.66 K	56.45
86.47 K	58.38
91.42 K	60.83
96.33 K	62.66
101.31 K	64.69
106.39 K	66.75
111.42 K	68.59
116.46 K	70.27
121.51 K	72.23
126.57 K	74.39
131.52 K	76.4
136.54 K	78.39
141.64 K	80.14
146.72 K	81.95
151.83 K	83.84
156.96 K	85.94
162.08 K	87.95
167.21 K	90.16
172.34 K	92.08
177.47 K	93.88
182.61 K	95.82
187.75 K	97.76
192.89 K	100.22
198.03 K	102.35
203.11 K	104.33
208.2 K	106.33
213.34 K	108.35
218.49 K	110.69
223.64 K	113.13
228.8 K	115.06
233.96 K	117.66
239.1 K	120.1
244.26 K	122.38
249.39 K	124.56
254.51 K	127.05
259.67 K	129.62
264.84 K	131.98
269.99 K	134.13
275.13 K	137.14
280.31 K	138.73
285.48 K	141.06
290.65 K	143.42
296.6 K	146.34
302.17 K	148.97
306.93 K	151.12
312.15 K	153.27
317.33 K	155.37
322.49 K	157.74
326.5 K	160.6
330.48 K	161.44
335.65 K	163.8
340.82 K	165.96

[Cu] [copper]
Settings	molar heat capacity at constant pressure [J/K/mol]
14.2 K	0.1027
15.68 K	0.2097
16.38 K	0.2384
16.77 K	0.2351
17.8 K	0.3079
19.33 K	0.4049
21 K	0.5507
22.76 K	0.7024
24.89 K	0.9364
27.19 K	1.257
29.54 K	1.621
32.17 K	2.071
35.07 K	2.634
35.81 K	2.796
38.36 K	3.344
38.95 K	3.483
42.31 K	4.276
46.05 K	5.166
50.21 K	6.197
54.08 K	7.128
54.62 K	7.296
56.1 K	7.632
58.53 K	8.226
59.11 K	8.36
59.5 K	8.478
63.71 K	9.435
63.87 K	9.508
68.55 K	10.6
73.28 K	11.6
78.07 K	12.55
82.91 K	13.41
87.8 K	14.23
92.71 K	15
93.13 K	15.06
97.66 K	15.72
97.7 K	15.7
102.69 K	16.38
107.7 K	16.96
112.73 K	17.49
117.78 K	18.01
122.84 K	18.49
127.92 K	18.95
133 K	19.37
138.1 K	19.74
143.21 K	20.06
148.33 K	20.36
151.4 K	20.55
153.45 K	20.66
156.5 K	20.85
158.58 K	20.95
161.61 K	21.11
166.74 K	21.37
171.89 K	21.59
177.04 K	21.77
182.2 K	21.94
187.36 K	22.15
192.53 K	22.25
197.69 K	22.35
202.86 K	22.6
203.62 K	22.66
208.02 K	22.73
208.7 K	22.81
213.88 K	22.96
219.05 K	23.11
224.22 K	23.25
229.39 K	23.33
234.57 K	23.45
239.76 K	23.52
244.94 K	23.6
247.71 K	23.62
250.12 K	23.7
253.15 K	23.76
255.31 K	23.79
261.84 K	23.83
270.43 K	24.07
275.79 K	24.13
280.97 K	24.2
286.16 K	24.27
291.35 K	24.32
296.54 K	24.39
301.73 K	24.51
306.93 K	24.55
312.11 K	24.54
317.29 K	24.59
322.48 K	24.64
327.67 K	24.69
332.85 K	24.81
338.04 K	24.86
343.25 K	24.88
348.43 K	25.04
